According to ChEMBL document CHEMBL4229536, “In vitro and in vivo pharmacokinetic and pharmacodynamic study of MBRI-001, a deuterium-substituted plinabulin derivative as a potent anti-cancer agent” (Bioorg Med Chem, 2018):

Tests used:
[1] = Stability in rat plasma at 1 uM after 5 mins by LC-MS/MS analysis; assay type: ADME, cell-free; details: read-out: Stability
[2] = Stability in rat plasma at 1 uM after 120 mins by LC-MS/MS analysis; assay type: ADME, cell-free; details: read-out: Stability
[3] = Stability in rat liver microsomes at 50 uM after 5 mins in presence of NADPH by LC-MS/MS analysis; assay type: ADME, microsome; details: liver microsomes, read-out: Stability
[4] = Stability in rat liver microsomes at 50 uM after 10 mins in presence of NADPH by LC-MS/MS analysis; assay type: ADME, microsome; details: liver microsomes, read-out: Stability
[5] = Stability in rat liver microsomes at 50 uM after 60 mins in presence of NADPH by LC-MS/MS analysis; assay type: ADME, microsome; details: read-out: Stability
[6] = Stability in rat liver microsomes at 50 uM after 210 mins in presence of NADPH by LC-MS/MS analysis; assay type: ADME, microsome; details: liver microsomes, read-out: Stability
[7] = Stability in rat liver microsomes at 50 uM after 270 mins in presence of NADPH by LC-MS/MS analysis; assay type: ADME, microsome; details: 4.5 h
Cytochrome P450 1A2 = molecular target: T1, Cytochrome P450 1A2 (Homo sapiens, UniProt P05177); experiment: Inhibition of CYP1A2 in human liver microsomes preincubated for 10 mins followed by NADPH addition measured after 10 mins by LC-MS/MS analysis; assay type: ADME
T1 sequence (P05177 whole entry): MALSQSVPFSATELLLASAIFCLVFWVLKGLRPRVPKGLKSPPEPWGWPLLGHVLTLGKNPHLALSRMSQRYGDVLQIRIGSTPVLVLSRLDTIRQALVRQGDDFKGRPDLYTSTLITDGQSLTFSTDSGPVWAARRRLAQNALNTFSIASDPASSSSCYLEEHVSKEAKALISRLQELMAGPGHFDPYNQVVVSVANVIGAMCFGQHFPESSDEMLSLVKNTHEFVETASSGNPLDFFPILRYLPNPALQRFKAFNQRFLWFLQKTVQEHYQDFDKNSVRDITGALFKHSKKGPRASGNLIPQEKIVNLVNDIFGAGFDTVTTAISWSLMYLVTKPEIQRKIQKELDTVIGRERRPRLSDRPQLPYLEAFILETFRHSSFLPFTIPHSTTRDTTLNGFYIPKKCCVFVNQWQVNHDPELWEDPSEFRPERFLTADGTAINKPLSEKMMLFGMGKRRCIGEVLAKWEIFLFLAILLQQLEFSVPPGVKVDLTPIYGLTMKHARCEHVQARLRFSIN

Cytochrome P450 2D6 = Cytochrome P450 2D6 (Homo sapiens, UniProt P10635); experiment: Inhibition of CYP2D6 in human liver microsomes preincubated for 10 mins followed by NADPH addition measured after 10 mins by LC-MS/MS analysis; assay type: ADME
Cytochrome P450 3A4 = Cytochrome P450 3A4 (Homo sapiens, UniProt P08684); experiment: Inhibition of CYP3A4 in human liver microsomes preincubated for 10 mins followed by NADPH addition measured after 10 mins by LC-MS/MS analysis; assay type: ADME
[8] = Protein binding in Beagle dog plasma at 2 uM after 4 hrs by LC-MS/MS analysis; assay type: ADME, cell-free, Canis lupus familiaris; details: read-out: PPB (converted)
[9] = Protein binding in Sprague-Dawley rat plasma at 2 uM after 4 hrs by LC-MS/MS analysis; assay type: ADME, cell-free; details: read-out: PPB (converted)
[10] = Cmax in Wistar rat at 8 mg/kg, iv; assay type: ADME, organism-based; design: dose 8 mg/kg, route intravenous; details: in vivo
[11] = AUClast in Wistar rat at 8 mg/kg, iv; assay type: ADME, organism-based; design: dose 8 mg/kg, time 0 - last, route intravenous; details: in vivo
[12] = Drug uptake in Wistar rat spleen at 6 mg/kg, iv measured after 0.5 hrs; assay type: ADME, organism-based; details: in vivo
[13] = Drug uptake in Wistar rat small intestine at 6 mg/kg, iv measured after 0.5 hrs; assay type: ADME, organism-based; details: in vivo
[14] = Drug uptake in Wistar rat pancreas at 6 mg/kg, iv measured after 1 hr; assay type: ADME, organism-based; details: in vivo
[15] = Drug uptake in Wistar rat small intestine at 6 mg/kg, iv measured after 1 hr; assay type: ADME, organism-based; details: in vivo
[16] = Drug uptake in Wistar rat liver at 6 mg/kg, iv measured after 4 hrs; assay type: ADME, organism-based; details: in vivo
[17] = Drug uptake in Wistar rat kidney at 6 mg/kg, iv measured after 4 hrs; assay type: ADME, organism-based; details: in vivo
[18] = Drug uptake in Wistar rat large intestine at 6 mg/kg, iv measured after 4 hrs; assay type: ADME, organism-based; details: in vivo
[19] = Drug uptake in Wistar rat spleen at 6 mg/kg, iv measured after 8 hrs; assay type: ADME, organism-based; details: in vivo
[20] = Drug uptake in Wistar rat large intestine at 6 mg/kg, iv measured after 8 hrs; assay type: ADME, organism-based; details: in vivo
[21] = Drug uptake in Wistar rat brain at 6 mg/kg, iv measured after 8 hrs; assay type: ADME, organism-based; details: in vivo
[22] = Drug excretion in Wistar rat feces at 4 mg/kg, iv measured after 8 hrs; assay type: ADME, organism-based; details: faeces, read-out: Drug excretion
[23] = Drug excretion in Wistar rat feces at 4 mg/kg, iv measured after 36 hrs; assay type: ADME, organism-based; details: faeces, read-out: Drug excretion
[24] = Drug excretion in Wistar rat feces at 4 mg/kg, iv measured after 48 hrs; assay type: ADME, organism-based; details: faeces, read-out: Drug excretion
[25] = Drug excretion in Wistar rat urine at 4 mg/kg, iv measured after 0.5 hrs; assay type: ADME, organism-based; details: read-out: Drug excretion
[26] = Drug excretion in Wistar rat urine at 4 mg/kg, iv measured after 24 hrs; assay type: ADME, organism-based; details: read-out: Drug excretion
[27] = Drug excretion in Wistar rat urine at 4 mg/kg, iv measured after 48 hrs; assay type: ADME, organism-based; details: read-out: Drug excretion
Mus musculus [28] = experiment: Toxicity in nude mouse xenografted with human NCI-H460 cells assessed as body weight at 3 mg/kg, iv administered once in every 2 days for 14 consecutive days (reference value: 20.6 +/- 1.5 g); assay type: organism-based; details: in vivo, 48 h
Mus musculus [29] = experiment: Toxicity in nude mouse xenografted with human NCI-H460 cells assessed as body weight at 6 mg/kg, iv administered once in every 2 days for 14 consecutive days (reference value: 20.6 +/- 1.5 g); assay type: organism-based; details: in vivo, 48 h
Mus musculus [30] = experiment: Toxicity in nude mouse xenografted with human NCI-H460 cells assessed as body weight at 9 mg/kg, iv administered once in every 2 days for 14 consecutive days (reference value: 20.6 +/- 1.5 g); assay type: organism-based; details: in vivo, 48 h
NCI-H460 [31] = experiment: Antitumor activity against human NCI-H460 cells xenografted in nude mouse assessed as inhibition of tumor weight at 6 mg/kg, iv administered once in every 2 days for 14 consecutive days cotreated with 50 mg/kg gefitinib once daily for 14 consecutive days relative to control; assay type: functional
NCI-H460 [32] = experiment: Antitumor activity against human NCI-H460 cells xenografted in nude mouse assessed as inhibition of tumor volume at 3 mg/kg, iv administered once in every 2 days for 14 consecutive days relative to control; assay type: functional; details: 48 h
NCI-H460 [33] = experiment: Antitumor activity against human NCI-H460 cells xenografted in nude mouse assessed as inhibition of tumor volume at 9 mg/kg, iv administered once in every 2 days for 14 consecutive days relative to control; assay type: functional; details: 48 h
NCI-H460 [34] = experiment: Antitumor activity against human NCI-H460 cells xenografted in nude mouse assessed as inhibition of tumor volume at 6 mg/kg, iv administered once in every 2 days for 14 consecutive days cotreated with 50 mg/kg gefitinib once daily for 14 consecutive days relative to control; assay type: functional
Mus musculus [35] = experiment: Toxicity in nude mouse xenografted with human NCI-H460 cells assessed as death at 3 to 6 mg/kg, iv administered once in every 2 days for 14 consecutive days cotreated with 25 to 50 mg/kg gefitinib once daily for 14 consecutive days; assay type: organism-based; details: in vivo, 48 h

Cytochrome P450 2D6, sequence (P10635 whole entry): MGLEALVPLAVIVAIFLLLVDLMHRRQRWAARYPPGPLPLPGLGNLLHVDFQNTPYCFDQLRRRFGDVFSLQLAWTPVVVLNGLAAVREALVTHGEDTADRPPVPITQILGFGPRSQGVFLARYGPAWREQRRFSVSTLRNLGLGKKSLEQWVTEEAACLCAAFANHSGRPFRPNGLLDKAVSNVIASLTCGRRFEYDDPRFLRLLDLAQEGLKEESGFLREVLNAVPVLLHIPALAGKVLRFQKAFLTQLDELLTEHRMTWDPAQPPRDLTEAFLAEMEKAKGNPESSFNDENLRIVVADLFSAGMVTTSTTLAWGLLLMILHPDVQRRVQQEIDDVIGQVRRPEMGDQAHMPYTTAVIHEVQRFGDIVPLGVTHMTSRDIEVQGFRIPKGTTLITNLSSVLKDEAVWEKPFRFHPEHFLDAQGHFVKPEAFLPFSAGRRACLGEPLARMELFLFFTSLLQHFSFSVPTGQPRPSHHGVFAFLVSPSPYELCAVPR
Cytochrome P450 3A4, sequence (P08684 whole entry): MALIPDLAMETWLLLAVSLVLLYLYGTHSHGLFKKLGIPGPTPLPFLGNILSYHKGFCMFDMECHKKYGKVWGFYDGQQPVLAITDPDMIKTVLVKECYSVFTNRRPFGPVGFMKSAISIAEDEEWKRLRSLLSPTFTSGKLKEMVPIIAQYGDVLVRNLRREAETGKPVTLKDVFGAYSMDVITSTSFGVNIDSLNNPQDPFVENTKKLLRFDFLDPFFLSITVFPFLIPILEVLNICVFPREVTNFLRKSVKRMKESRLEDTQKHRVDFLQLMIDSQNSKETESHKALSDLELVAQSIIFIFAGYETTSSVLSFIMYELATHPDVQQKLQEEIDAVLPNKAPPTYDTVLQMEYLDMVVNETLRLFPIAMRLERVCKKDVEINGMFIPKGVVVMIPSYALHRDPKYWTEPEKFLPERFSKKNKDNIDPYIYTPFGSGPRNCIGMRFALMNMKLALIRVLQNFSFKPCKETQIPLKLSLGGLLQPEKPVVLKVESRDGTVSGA

SMILES: [2H]/C(c1nc[nH]c1C(C)(C)C)=c1/[nH]c(=O)/c(=C/c2ccccc2)[nH]c1=O
- remaining at 5 min, 1 µM [1]: 93.9%
- remaining at 2 h, 1 µM [2]: 101%
- remaining at 5 min, 50 µM [3]: 84.8%
- remaining at 10 min, 50 µM [4]: 80.6%
- remaining at 1 h, 50 µM [5]: 47.1%
- remaining at 3.5 h, 50 µM [6]: 31.5%
- Stability [7]: 35.33%
- IC50 (Cytochrome P450 1A2): 1.02 µM
- IC50 (Cytochrome P450 2D6): 18.4 µM
- IC50 (Cytochrome P450 3A4): > 50 µM
- fraction unbound at 4 h, 2 µM [8]: 0.027
- fraction unbound at 4 h, 2 µM [9]: 0.042
- Cmax [10]: 20100 ng/mL
- AUC(0-t) [11]: 5780 ng·h/mL
- Drug uptake [12]: 4808.8 ng/mL/g
- Drug uptake [13]: 1799.2 ng/mL/g
- Drug uptake [14]: 4538.9 ng/mL/g
- Drug uptake [15]: 1128.6 ng/mL/g
- Drug uptake [16]: 4220 ng/mL/g
- Drug uptake [17]: 3570.8 ng/mL/g
- Drug uptake [18]: 359 ng/mL/g
- Drug uptake [19]: 773.1 ng/mL/g
- Drug uptake [20]: 1188.5 ng/mL/g
- Drug uptake [21]: 144.8 ng/mL/g
- dose excreted at 8 h [22]: 0.11%
- dose excreted at 36 h [23]: 5.85%
- dose excreted at 48 h [24]: 6.1%
- dose excreted at 0.5 h [25]: 0.02%
- dose excreted at 24 h [26]: 0.2%
- dose excreted at 48 h [27]: 0.26%
- Activity (Mus musculus [28]): 20.5 g
- Activity (Mus musculus [29]): 21.1 g
- Activity (Mus musculus [30]): 19.9 g
- inhibition (INH) (NCI-H460 [31]): 60.5%
- inhibition in vivo at 3 mg/kg (NCI-H460 [32]): 46.9%
- inhibition in vivo at 9 mg/kg (NCI-H460 [33]): 68.2%
- inhibition (INH) (NCI-H460 [34]): 67.8%
- Activity (Mus musculus [35]): Non-Toxic
